26 compounds from patent US6306899A (priority 1999, dated 2001) can be followed below.

The structures appear in SMILES notation. pEC50: −log10 of the molar value. Values after ≈ are worked out from the molar mass of the structure shown. Read-outs that look alike come from different tables or passages of the source.

One data set relates to Yellow Fever virus. The data set can be described thus: microbe, parasite or virus in culture. Type of data set: cell-based.
The nature of data set [1]: Cytotoxicity, HepG2 cell growth. Type of data set: cell-based. The settings on record: human, hepg2 cells; 3 days; read-out: Cytotoxicity (IC50) HepG2 cell. Here is the method: (§1) To determine the cellular toxicity of the present compounds, the T-lymphoblastoic cell line (CEM) and the HEP-G2 cell line (parent cell line from which 2.2.15 cell line is produced) were used. Cells were subjected to varying concentrations of the drug(s) and cell numbers were determined 3 days post treatment by the method described by Chen, C-H and Cheng, Y-C, J. Biol. Chem., 264, 11934 (1989). Concentrations of the drug which would result in inhibition of cell growth were determined from the plot generated by representing cell numbers corresponding to the individual drug concentrations.

The test system of the next data set is HBV. The data set can be described thus: microbe, parasite or virus in culture. It counts as cell-based, Hepatitis B virus. To be noted: for pEC50: Hepatitis B virus, 144 h; for inhibition of HBV replication / DNA level: in words.
Data set [2] can be described thus: Cytotoxicity, CEM cell growth. Type of data set: cell-based. The settings on record: human, cem cells; 3 days; read-out: Cytotoxicity (IC50) CEM cell. Here is the method:
as §1

A further data set relates to HBsAg. The data set can be described thus: microbe, parasite or virus in culture. The settings on record: for pEC50: Hepatitis B virus, 144 h, read-out: Anti-viral activity (ED50) HbsAg; for HbsAg expression inhibition: in words. Type of data set: cell-based, Hepatitis B virus.
The nature of data set [3]: Solubility: saturated solution in PBS at room temperature. It counts as physicochemical. The settings on record: aqueous buffer. An excerpt:
3. The symbol "*" denotes the concentration of the saturated solution in
PBS at room temperature.

For a further data set, the system named is HBsAg in Hep3B cells. The data set can be described thus: Suppression of HBsAg secretion in Hep3B cells, serum-free, 2 days. Type of data set: cell-based. To be noted: Homo sapiens, 48 h, read-out: EC50 Hep3B (50% reduction of HBsAg secretion). An excerpt:
(§2) Biological testing results of Helioxanthin and
(§3) its derivatives for suppression of HBsAg
(§4) in HepA2 and Hep3B cells in serum-free condition for 2 days
(§5) The symbol, "**" denotes EC50, the concentration of tested compounds
(§6) which exerted 50% reduction of HBsAg secretion in human hepatoma cells.

For the next data set, the system named is HBsAg in HepA2 cells. The data set can be described thus: Suppression of HBsAg secretion in HepA2 cells, serum-free, 2 days. Type of data set: cell-based. The settings on record: Homo sapiens, HepA2, 48 h, read-out: EC50 HepA2 (50% reduction of HBsAg secretion).
From the text: as §2, §3, §4
The symbol, "*" denotes HepA2, HBV DNA stable transfected HBV dimer DNA.
as §5, §6

[4] abbreviates: Yellow fever virus, BHK, 144 h, read-out: Anti-viral activity (ED50) YFV, plaque reduction, BHK cells, 6 days.

Take `O=C1OC(=O)c2c1cc1cc3c(cc1c2-c1cc2c(cc1Br)OCO2)OCO3` [ZHU-IX-120-3, 6,7-methylenedioxy-1-(2'-bromo-4',5'-methylenedioxyphenyl)napthalene-2,3-dicarboxylic acid anhydride]: the pEC50 in the data set with Yellow Fever virus (setting [4]), with HBV and in the data set on HBsAg was less than 5.00 each time. The figures for the CC50 at 72 h in data set [1] and in data set [2] were 11 µM and more than 30 µM, respectively. Besides, the solubility in data set [3] was found to be 11.8 µM (≈ 5.21 µg/mL).

Consider `COc1cc(C2c3cc(O)c(OC)cc3CC3C(=O)OCC32)ccc1O` (stereo not shown) [Conidendrin], for which the pEC50 with HBsAg in Hep3B cells and in the data set with HBsAg in HepA2 cells was less than 4.90 throughout.

With `Cc1c(CO)cc2ccc3c(c2c1-c1ccc2c(c1)OCO2)OCO3` [ZHU-IX-122-1, 3-methyl-5,6-methylenedioxy-4-(3',4'-methylenedioxyphenyl)-2-hydroxymethylnapthalene], the pEC50 in the data set with Yellow Fever virus (setting [4]) is less than 5.00; in the data set on HBV, 5.30; in the data set with HBsAg, 5.00. For the same compound, the CC50 at 72 h in data set [1] and in data set [2] was more than 30 µM each time. In addition, the “inhibition of HBV replication / DNA level” value with HBV is listed as “inhibit HBV replication”. The HbsAg expression inhibition entry in the data set on HBsAg is “inhibit HBV replication and HbsAg expression”. The concentration in solution in data set [3] (solubility) was 52.9 µM (≈ 17.8 µg/mL).

For the compound `Cc1cc2ccc3c(c2c(-c2ccc4c(c2)OCO4)c1CO)OCO3` [ZHU-IX-159, 3-methyl-7,8-methylenedioxy-1-(3',4'-methylenedioxyphenyl)-2-hydroxymethylenaphtalene], the figures for the pEC50 with Yellow Fever virus (setting [4]), in the data set on HBV and in the data set on HBsAg were less than 5.00, less than 5.00 and 5.00, respectively. In addition, the CC50 at 72 h in data set [1] is 16 µM. This compound displayed a solubility in data set [3] of 24.4 µM (≈ 8.21 µg/mL).

On to `O=C1OCc2c1cc1c(Br)cc3c(c1c2-c1cc2c(cc1Br)OCO2)OCO3` [ZHU-IX-143, 8,2'-dibromo-5,6-methylenedioxy-4-(4',5'-methylenedioxyphenyl)-3-hydroxymethylnapthalene-2-carboxylic acid lactone], for which the pEC50 with Yellow Fever virus (setting [4]), with HBV and in the data set with HBsAg was less than 5.00 each time. In addition, the CC50 at 72 h was 20 µM in data set [1] and more than 30 µM in data set [2]. In addition, the concentration in solution in data set [3] (solubility) was 11.9 µM (≈ 6.02 µg/mL).

Regarding `Cc1c(C(=O)O)cc2ccc3c(c2c1-c1ccc2c(c1)OCO2)OCO3` [ZHU-X-4], the pEC50 in the data set with Yellow Fever virus (setting [4]) is less than 4.70; with HBV it was less than 5.00; in the data set with HBsAg, less than 5.00.

For the compound `OCc1cc2ccc3c(c2c(-c2ccc4c(c2)OCO4)c1CO)OCO3` [ZHU-IX-124-2, 2,3-dihydroxymethyl-5,6-methylenedioxy-4-(3',4'-methylenedioxyphenyl)napthalene], the figures for the pEC50 with Yellow Fever virus (setting [4]), in the data set on HBV and in the data set with HBsAg were less than 5.00, 5.00 and 5.00, respectively. In addition, the CC50 at 72 h in data set [1] was 16 µM; in data set [2], more than 30 µM. In addition, the solubility in data set [3] turned out to be 127 µM (≈ 44.8 µg/mL).

As to `COc1cc2c(OC(C)=O)c3c(c(-c4ccc5c(c4)OCO5)c2cc1OC)C(=O)OC3` [Diphylline Acetate], the pEC50 with HBsAg in Hep3B cells and with HBsAg in HepA2 cells was less than 4.90 in each case.

Take `COc1cc(-c2c3c(cc4cc(OC)c(OC(C)=O)cc24)C(=O)OC3)ccc1OC(C)=O` [Diacetate]: the pEC50 in the data set with HBsAg in Hep3B cells and in the data set with HBsAg in HepA2 cells was less than 4.90 throughout.

In the case of `COc1cc(-c2c3c(cc4cc(OC)c(O)cc24)C(=O)OC3)ccc1O` [Dehydroconidendrin], the pEC50 with HBsAg in Hep3B cells and in the data set with HBsAg in HepA2 cells was less than 4.90 in each case.

Consider `OCc1cc2c(Br)cc3c(c2c(-c2ccc4c(c2)OCO4)c1CO)OCO3` [ZHU-IX-135-1, 2,3-dihydroxymethyl-5-bromo-7,8-methylenedioxy-1-(3', 4'-methylenedioxyphenyl)napthalene], for which the pEC50 is 4.85 in the data set on Yellow Fever virus (setting [4]), 5.52 with HBV and 5.07 in the data set with HBsAg. Moreover, the CC50 at 72 h in data set [1] is 12 µM; in data set [2], more than 30 µM. Moreover, in the data set on HBV, the “inhibition of HBV replication / DNA level” value was “inhibit HBV replication”. The HbsAg expression inhibition result with HBsAg is “inhibit HBV replication and HbsAg expression”. Further, the solubility in data set [3] amounted to 24.8 µM (≈ 10.7 µg/mL).

For `Cc1c(C(=O)O)cc2ccc3c(c2c1-c1ccc2c(c1)OCO2)OCO3` [ZHU-X-10, sodium 5,6-methylenedioxy-4-(3',4'-methylenedioxyphenyl)-2-methylnapthalene-3-carbonate], the pEC50 in the data set with Yellow Fever virus (read-out: Anti-viral activity (ED50) YFV, plaque reduction, BHK cells, 6 days, 8640 min) was less than 4.60.

Consider `COc1cc2c(O)c3c(c(-c4ccc5c(c4)OCO5)c2cc1OC)C(=O)OC3` [Diphylline], for which the pEC50 in the data set with HBsAg in Hep3B cells and in the data set with HBsAg in HepA2 cells was less than 4.90 throughout.

As for `O=C1OCc2cc3ccc4c(c3c(-c3ccc5c(c3)OCO5)c21)OCO4` [ZHU-IX-139-2, 7,8-methylendioxy-1-(3',4'-methylenedioxyphenyl)-3-hydroxymethylnapthalene-2-carboxylic acid lactone], the pEC50 was 4.80 with Yellow Fever virus (setting [4]), less than 5.00 with HBV and 5.00 in the data set with HBsAg. Besides, the CC50 at 72 h in data set [1] stood at 12 µM; in data set [2], 18 µM. This compound registered a solubility in data set [3] of 21 µM (≈ 7.31 µg/mL).

With `COc1cc2c(OC)c3c(c(-c4ccc5c(c4)OCO5)c2cc1OC)C(=O)OC3` [Justicidin A], the pEC50 in the data set on HBsAg in Hep3B cells and in the data set with HBsAg in HepA2 cells was less than 4.90 each time.

Take `O=C1OC(=O)c2c1c(Br)c1cc3c(cc1c2-c1cc2c(cc1Br)OCO2)OCO3` [ZHU-IX-120-2, 1-bromo-6,7-methylenedioxy-4-(2'-bromo-4', 5'-methylenedioxyphenyl)napthalene-2,3-dicarboxylic acid anyhdride]: the pEC50 with Yellow Fever virus (setting [4]), in the data set with HBV and with HBsAg was less than 5.00 each time. Besides, the CC50 at 72 h is 6 µM in data set [1] and more than 30 µM in data set [2]. The compound further showed a solubility in data set [3] of 13.1 µM (≈ 6.81 µg/mL).

For `COc1ccc(C2c3cc(OC)c(OC)cc3CC3C(=O)OCC32)cc1OC` (stereo not shown) [Conidendrin Methyl Ether], the pEC50 in the data set on HBsAg in Hep3B cells and in the data set on HBsAg in HepA2 cells was less than 4.90 in each case.

With `Cc1c(C=O)cc2ccc3c(c2c1-c1ccc2c(c1)OCO2)OCO3` [ZHU-IX-189, 5,6-methylenedioxy-4-(3',4'-methylendioxyphenyl)-2-methylnapthalene-3-aldehyde], the pEC50 is less than 4.60 in the data set with Yellow Fever virus (setting [4]), less than 5.00 in the data set with HBV and less than 5.00 with HBsAg.

Turning to `Cc1cc2ccc3c(c2c(-c2ccc4c(c2)OCO4)c1C)OCO3` [ZHU-IX-163-2], the pEC50 in the data set with Yellow Fever virus (setting [4]), in the data set with HBV and with HBsAg was less than 5.00 in each case. The CC50 at 72 h in data set [1] turned out to be 17 µM. In data set [3], the solubility worked out at 18.4 µM (≈ 5.89 µg/mL).

With `O=C1OCc2cc3cc4c(cc3c(-c3ccc5c(c3)OCO5)c21)OCO4` [Taiwanin C], the pEC50 is 6.00 with HBsAg in Hep3B cells and 5.90 in the data set with HBsAg in HepA2 cells.

On to `CC(=O)Oc1c2c(c(-c3ccc4c(c3)OCO4)c3cc4c(cc13)OCO4)C(=O)OC2` [Taiwanin E acetate], for which the pEC50 in the data set on HBsAg in Hep3B cells and in the data set on HBsAg in HepA2 cells was less than 4.90 in each case.

As to `O=C1OC(=O)c2c1cc1c(Br)cc3c(c1c2-c1cc2c(cc1Br)OCO2)OCO3` [ZHU-IX-120-1, 5-bromo-7,8-methylenedioxy-1-(2'-bromo-4',5'-methylenedioxyphenyl)napthalene-2,3-dicarboxylic acid anhydride], the pEC50 with Yellow Fever virus (setting [4]), with HBV and in the data set on HBsAg was less than 5.00 in each case. Further, the results for the CC50 at 72 h in data set [1] and in data set [2] were 6 µM and more than 30 µM, respectively. Besides, the concentration in solution in data set [3] (solubility) came to 13.8 µM (≈ 7.18 µg/mL).

Turning to `O=C(O)c1cc2ccc3c(c2c(-c2ccc4c(c2)OCO4)c1CO)OCO3` [ZHU-IX-157, sodium 5,6-methylenedioxy-4-(3',4'-methylenedioxyphenyl)-3-hydroxymethylnapthalene-2-carbonate], the values for the pEC50 in the data set on Yellow Fever virus (setting [4]), with HBV and with HBsAg were 5.10, 5.60 and 5.00, respectively. Besides, in the data set on Yellow Fever virus (in words), the “activity against the Yellow fever virus” value is given as “demonstrated activity against the Yellow fever virus”. The results for the CC50 at 72 h in data set [1] and in data set [2] were 26 µM and more than 30 µM, respectively. In data set [3], this compound displayed a solubility of 255 µM.

Turning to `COc1cc(C2c3cc(OC(C)=O)c(OC)cc3CC3C(=O)OCC32)ccc1OC(C)=O` (stereo not shown) [Conidendrin Diacetate], the pEC50 with HBsAg in Hep3B cells and with HBsAg in HepA2 cells was less than 4.90 throughout.

Take `O=C(O)c1c(CO)cc2ccc3c(c2c1-c1ccc2c(c1)OCO2)OCO3` [ZHU-IX-153, sodium 7,8-methylenedioxy-1-(3',4'-methylendioxyphenyl)-3-hydroxymethylnapthalene-2-carbonate]: the pEC50 in the data set on Yellow Fever virus (setting [4]), in the data set with HBV and in the data set with HBsAg was less than 5.00 throughout. Moreover, in data set [1], the CC50 at 72 h was more than 30 µM. The compound also came in with a solubility in data set [3] of 255 µM.

Take `O=C1OCc2c1c(-c1ccc3c(c1)OCO3)c1cc3c(cc1c2O)OCO3` [Taiwanin E]: the pEC50 with HBsAg in Hep3B cells and in the data set on HBsAg in HepA2 cells was less than 4.90 each time.

By solubility is commonly meant the concentration that dissolves in the medium under given conditions. A higher solubility goes with a readily soluble substance.
